Experimental data published in US20230278972A1, “SUBSTITUTED HALOALKYL SULFONANILIDE HERBICIDES” (FMC Corporation, priority 2020, published 2023).

Legend:
Type in all cases: in vivo
kochia (Bassia scoparia) [1] = assay: Test A postemergence, kochia; conditions: Postemergence; for Kochia plant response rating: 500 g ai/ha, visual injury vs untreated controls after approx. 10 days
Outline: (§1)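 Whole-plant herbicidal screen in pots of loam blended with sand. Sprays used a surfactant-containing, non-phytotoxic solvent vehicle. Timing was preemergence soil-directed at planting or postemergence at the one- to two-leaf stage (2–10 cm).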

[2] = system: pigweed (Amaranthus retroflexus); assay: Test A preemergence, pigweed; conditions: for Pigweed plant response rating: 125 g ai/ha, visual injury on 0 to 100 scale (0 no effect, 100 complete control), approximately 10 days; for Plant response rating, Pigweed: 0 to 100 scale (0 no effect, 100 complete control)
Outline: (§2)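 Seeds are sown in loam mixed with sand and sprayed on the soil surface right after planting for the preemergence test. Postemergence pots are sprayed once seedlings reach 2 to 10 cm at the one- to two-leaf stage. The same surfactant-containing, non-phytotoxic solvent formulation serves both.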

[3] = system: Ryegrass, Italian (Italian ryegrass, Lolium multiflorum); assay: Test A postemergence, Ryegrass, Italian; conditions: Postemergence; for Ryegrass, Italian plant response rating: 500 g ai/ha, visual injury vs untreated controls after approx. 10 days
Outline: as §1

[4] = system: barnyardgrass (Echinochloa crus-galli); assay: Test A preemergence, barnyardgrass; conditions: Preemergence; for Barnyardgrass plant response rating: 125 g ai/ha, visual injury on 0 to 100 scale (0 no effect, 100 complete control), approximately 10 days; for Plant response rating, Barnyardgrass: 0 to 100 scale (0 no effect, 100 complete control)
Outline: as §1

[5] = system: barnyardgrass (Echinochloa crus-galli); assay: Test A postemergence, barnyardgrass; conditions: Postemergence; for Barnyardgrass plant response rating: 500 g ai/ha, visual injury vs untreated controls after approx. 10 days
Outline: as §2

corn (Zea mays) = assay: Test A postemergence, corn; conditions: Postemergence; for Corn plant response rating: 500 g ai/ha, visual injury vs untreated controls after approx. 10 days
Outline: as §1

[6] = system: pigweed (Amaranthus retroflexus); assay: Test A postemergence, pigweed; conditions: Postemergence; for Pigweed plant response rating: 500 g ai/ha, visual injury vs untreated controls after approx. 10 days
Outline: as §1

[7] = system: ragweed (common ragweed, Ambrosia artemisiifolia); assay: Test A postemergence, ragweed; conditions: Postemergence; for Ragweed plant response rating: 500 g ai/ha, visual injury vs untreated controls after approx. 10 days
Outline: as §1

[8] = system: Foxtail, Giant (giant foxtail, Setaria faberi); assay: Test A preemergence, Foxtail, Giant; conditions: Preemergence; for Foxtail, Giant plant response rating: 125 g ai/ha, visual injury on 0 to 100 scale (0 no effect, 100 complete control), approximately 10 days; for Plant response rating, Foxtail, Giant: 0 to 100 scale (0 no effect, 100 complete control)
Outline: as §1

[9] = system: galium (catchweed bedstraw, Galium aparine); assay: Test A postemergence, galium; conditions: Postemergence; for Galium plant response rating: 500 g ai/ha, visual injury vs untreated controls after approx. 10 days
Outline: as §2

[10] = system: Foxtail, Giant (giant foxtail, Setaria faberi); assay: Test A postemergence, Foxtail, Giant; conditions: Postemergence; for Foxtail, Giant plant response rating: 500 g ai/ha, visual injury vs untreated controls after approx. 10 days
Outline: as §1

kochia (Bassia scoparia) [11] = assay: Test A preemergence, kochia; conditions: Preemergence; for Kochia plant response rating: 125 g ai/ha, visual injury on 0 to 100 scale (0 no effect, 100 complete control), approximately 10 days; for Plant response rating, Kochia: 0 to 100 scale (0 no effect, 100 complete control)
Outline: as §1

[12] = system: ragweed (common ragweed, Ambrosia artemisiifolia); assay: Test A preemergence, ragweed; conditions: Preemergence; for Ragweed plant response rating: 125 g ai/ha, visual injury on 0 to 100 scale (0 no effect, 100 complete control), approximately 10 days; for Plant response rating, Ragweed: 0 to 100 scale (0 no effect, 100 complete control)
Outline: as §1

[13] = system: Ryegrass, Italian (Italian ryegrass, Lolium multiflorum); assay: Test A preemergence, Ryegrass, Italian; conditions: Preemergence; for Ryegrass, Italian plant response rating: 125 g ai/ha, visual injury on 0 to 100 scale (0 no effect, 100 complete control), approximately 10 days; for Plant response rating, Ryegrass, Italian: 0 to 100 scale (0 no effect, 100 complete control)
Outline: as §1

[14] = system: blackgrass (Alopecurus myosuroides); assay: Test A postemergence, blackgrass; conditions: Postemergence; for Blackgrass plant response rating: 500 g ai/ha, visual injury vs untreated controls after approx. 10 days
Outline: as §1

[15] = system: wheat (Triticum aestivum); assay: Test A postemergence, wheat; conditions: Postemergence; for Wheat plant response rating: 500 g ai/ha, visual injury vs untreated controls after approx. 10 days
Outline: as §2

[16] = 125 g ai/ha, 0 to 100 scale (0 no effect, 100 complete control)
[17] = 0 to 100 scale (0 no effect, 100 complete control)
[18] = 31 g ai/ha, visual injury on 0 to 100 scale (0 no effect, 100 complete control), approx. 10 days
[19] = 31 g ai/ha, visual injury, approx. 10 days

| SMILES | Plant response rating, Kochia (kochia (Bassia scoparia) [1]; [16]) | Kochia plant response rating (kochia (Bassia scoparia) [1]; [17]) | Pigweed plant response rating [2] | Plant response rating, Pigweed ([2]; 500 g ai/ha) | Plant response rating, Ryegrass, Italian [3, 16] | Ryegrass, Italian plant response rating [3, 17] | Barnyardgrass plant response rating [4] | Plant response rating, Barnyardgrass ([4]; 500 g ai/ha) | Plant response rating, Barnyardgrass [5, 16] | Plant response rating, Corn (corn (Zea mays); [16]) | Plant response rating, Pigweed [6, 16] | Plant response rating, Ragweed [7, 16] | Foxtail, Giant plant response rating [8] | Plant response rating, Galium [9, 16] | Plant response rating, Foxtail, Giant [10, 16] | Kochia plant response rating (kochia (Bassia scoparia) [11]) | Ragweed plant response rating [12] | Ryegrass, Italian plant response rating [13] | Plant response rating, Blackgrass [14, 16] | Plant response rating, Wheat [15, 16] | other results |
| --- | --- | --- | --- | --- | --- | --- | --- | --- | --- | --- | --- | --- | --- | --- | --- | --- | --- | --- | --- | --- | --- |
| Cc1cc(C)c(C(=O)N2CCCOCC2)cc1NS(=O)(=O)C(F)(F)F [Compound 160] | 10 | 30 | 90 | 100 | 0 | 0 | 80 | 100 | 30 | 0 | 70 | 70 | 90 | 80 | 0 | 20 | 10 | 50 | 0 | 0 | Barnyardgrass plant response rating [5, 17]: 80; Corn plant response rating (corn (Zea mays); [17]): 10; Pigweed plant response rating [6, 17]: 90; Ragweed plant response rating [7, 17]: 80; Plant response rating, Foxtail, Giant ([8]; 500 g ai/ha): 100; Galium plant response rating [9, 17]: 90; Foxtail, Giant plant response rating [10, 17]: 60; Plant response rating, Kochia (kochia (Bassia scoparia) [11]; 500 g ai/ha): 90; Plant response rating, Ragweed ([12]; 500 g ai/ha): 90; Plant response rating, Ryegrass, Italian ([13]; 500 g ai/ha): 60; Blackgrass plant response rating [14, 17]: 10; Wheat plant response rating [15, 17]: 20 |
| Cc1cc(C)c(N(S(=O)(=O)C(F)(F)F)S(=O)(=O)C(F)(F)F)cc1C(=O)N1CCC(C#N)CC1 [Compound 161] | 50 | – | 100 | – | 20 | – | 100 | – | 80 | 50 | 80 | 70 | 80 | 90 | 20 | 90 | 90 | 100 | 0 | 0 | Plant response rating, Kochia (kochia (Bassia scoparia) [1]; [18]): 10; Plant response rating, Pigweed [2, 19]: 70; Plant response rating, Ryegrass, Italian [3, 18]: 20; Plant response rating, Barnyardgrass [4, 19]: 20; Plant response rating, Barnyardgrass [5, 18]: 40; Plant response rating, Corn (corn (Zea mays); [18]): 10; Plant response rating, Pigweed [6, 18]: 70; Plant response rating, Ragweed [7, 18]: 40; Plant response rating, Foxtail, Giant [8, 19]: 40; Plant response rating, Galium [9, 18]: 30; Plant response rating, Foxtail, Giant [10, 18]: 0; Plant response rating, Kochia (kochia (Bassia scoparia) [11]; [19]): 30; Plant response rating, Ragweed [12, 19]: 90; Plant response rating, Ryegrass, Italian [13, 19]: 70; Plant response rating, Blackgrass [14, 18]: 0; Plant response rating, Wheat [15, 18]: 0 |
| Cc1cc(C)c(C(=O)N2CCC(C#N)CC2)cc1NS(=O)(=O)C(F)(F)F [Compound 162] | 10 | – | 100 | – | 30 | – | 60 | – | 80 | 20 | 60 | 60 | 90 | 100 | 30 | 40 | 30 | 70 | 20 | 50 | Plant response rating, Kochia (kochia (Bassia scoparia) [1]; [18]): 10; Plant response rating, Pigweed [2, 19]: 100; Plant response rating, Ryegrass, Italian [3, 18]: 0; Plant response rating, Barnyardgrass [4, 19]: 0; Plant response rating, Barnyardgrass [5, 18]: 40; Plant response rating, Corn (corn (Zea mays); [18]): 20; Plant response rating, Pigweed [6, 18]: 50; Plant response rating, Ragweed [7, 18]: 60; Plant response rating, Foxtail, Giant [8, 19]: 100; Plant response rating, Galium [9, 18]: 80; Plant response rating, Foxtail, Giant [10, 18]: 10; Plant response rating, Kochia (kochia (Bassia scoparia) [11]; [19]): 30; Plant response rating, Ragweed [12, 19]: 0; Plant response rating, Ryegrass, Italian [13, 19]: 40; Plant response rating, Blackgrass [14, 18]: 20; Plant response rating, Wheat [15, 18]: 30 |
| Cc1cc(C)c(C2=NOC3(CCC(C)(C)CC3)C2)cc1NS(=O)(=O)C(F)(F)F [Compound 163] | 10 | 60 | 50 | 100 | 0 | 30 | 90 | 100 | 0 | 0 | 60 | 0 | 50 | 70 | 0 | 0 | 20 | 80 | 20 | 0 | Barnyardgrass plant response rating [5, 17]: 80; Corn plant response rating (corn (Zea mays); [17]): 60; Pigweed plant response rating [6, 17]: 80; Ragweed plant response rating [7, 17]: 30; Plant response rating, Foxtail, Giant ([8]; 500 g ai/ha): 90; Galium plant response rating [9, 17]: 90; Foxtail, Giant plant response rating [10, 17]: 10; Plant response rating, Kochia (kochia (Bassia scoparia) [11]; 500 g ai/ha): 80; Plant response rating, Ragweed ([12]; 500 g ai/ha): 60; Plant response rating, Ryegrass, Italian ([13]; 500 g ai/ha): 100; Blackgrass plant response rating [14, 17]: 30; Wheat plant response rating [15, 17]: 0 |
| Cc1cc(C)c(N(S(=O)(=O)C(F)(F)F)S(=O)(=O)C(F)(F)F)cc1C(=O)N(C)CC1CC1 [Compound 169] | 20 | 50 | 60 | 80 | 10 | 30 | 30 | 100 | 40 | 50 | 40 | 60 | 20 | 80 | 10 | 0 | 40 | 50 | 0 | 0 | Barnyardgrass plant response rating [5, 17]: 90; Corn plant response rating (corn (Zea mays); [17]): 90; Pigweed plant response rating [6, 17]: 50; Ragweed plant response rating [7, 17]: 90; Plant response rating, Foxtail, Giant ([8]; 500 g ai/ha): 90; Galium plant response rating [9, 17]: 90; Foxtail, Giant plant response rating [10, 17]: 40; Plant response rating, Kochia (kochia (Bassia scoparia) [11]; 500 g ai/ha): 30; Plant response rating, Ragweed ([12]; 500 g ai/ha): 80; Plant response rating, Ryegrass, Italian ([13]; 500 g ai/ha): 100; Blackgrass plant response rating [14, 17]: 20; Wheat plant response rating [15, 17]: 0 |
